In patent US20240024273A1, “TOPICAL ADMINISTRATION OF 2-(DIETHYLAMINO)ETHYL 2-(4-ISOBUTYLPHENYL)PROPRIONATE FOR TREATMENT OF DISEASES” (TECHFIELDS PHARMA CO., LTD., priority 2020, published 2024):

Tested on: Mild to Moderate Osteoarthritis of the Knee
Assay: Phase 2 study: WOMAC joint stiffness subscale score
Format: in vivo, human
Conditions: for Change of WOMAC Joint Stiffness score from baseline (±SEM) / Percentage of improvement from baseline, WOMAC Joint Stiffness score: all patients taken as active
Excerpt: This is a Phase 2, multicenter, randomized, double blind (within dose), placebo controlled, parallel group, proof of concept, and dose range finding study to evaluate the efficacy, safety, and PK of 2-(diethylamino)ethyl 2-(4-isobutylphenyl)propionate hydrochloride spray in adult subjects with clinically symptomatic mild to moderate OA of the knee. For subjects with bilateral knee pain, both knees will be treated, but the most symptomatic knee (i.e., the most painful knee as measured by the Western Ontario and McMaster University Osteoarthritis Index [WOMAC® 3.1] pain subscale score at Screening) will be designated as the target knee for efficacy analyses. For subjects with unilateral knee pain, only the symptomatic (target) knee will be treated.
After a Screening Period of up to 3 weeks and radiographic evaluation of the target knee joint space, a subject will be randomly assigned to 1 of 3 treatment groups in a 1:1:1 ratio with a 2:1 ratio of active:placebo within each treatment group (ie, 2 subjects to active treatment and 1 subject to placebo): • Group A: 8.75 mg 2-(diethylamino)ethyl 2-(4-isobutylphenyl)propionate/knee (2 sprays/knee, one spray to the medial surface and one spray to the lateral surface of the knee), twice daily (BID, approximately every 12 hours; n=50) or placebo (2 sprays/knee), BID (approximately every 12 hours; n=25) for a total of 4 sprays per knee per day; • Group B: 17.5 mg 2-(diethylamino)ethyl 2-(4-isobutylphenyl)propionate/knee (4 sprays/knee, one spray to the medial surface and one spray to the lateral surface of the knee, and one spray to front and one spray to the back of the knee), BID (approximately every 12 hours; n=50) or placebo (4 sprays/knee), BID (approximately every 12 hours; n=25) for a total of 8 sprays per knee per day; • Group C: 35 mg 2-(diethylamino)ethyl 2-(4-isobutylphenyl)propionate/knee (8 sprays/knee, each spray is to be applied to a different non-overlapping area around the knee, and the areas are to be uniformly distributed around the knee), BID (approximately every 12 hours; n=50) or placebo (8 sprays/knee), BID (approximately every 12 hours; n=25) for a total of 16 sprays per knee per day.
The VAS version of the WOMAC will be used for the Primary and Secondary Efficacy Endpoints. Efficacy endpoints will be assessed at Screening and Baseline (Day 1) and at the Week 2, Week 4, Week 8, and Week 12/EOS visits.
3.9.2. Secondary Efficacy Endpoints: • 1. Change from Baseline in the WOMAC (VAS) pain subscale score for the target knee at 2, 4, and 8 weeks of treatment; • 2. Change from Baseline in the WOMAC (VAS) stiffness subscale scores for the target knee and WOMAC (VAS) functional ability subscale scores at 2, 4, 8, and 12 weeks of treatment; • 3. Change from Baseline in the overall WOMAC (VAS) score at 2, 4, 8, and 12 weeks of treatment.
The Secondary Efficacy Endpoints, change from Baseline in the WOMAC subscale scores for pain, stiffness, and functional ability, and overall WOMAC score at 2, 4, 8, and 12 weeks of treatment, will be analyzed using the same methods as for the Primary Efficacy Endpoint.
To determine this, we assumed that all patients received 2-(diethylamino)ethyl 2-(4-isobutylphenyl)propionate, active drug treatment (i.e. all patients who received 2-(diethylamino)ethyl 2-(4-isobutylphenyl)propionate or placebo treatment for 12 weeks or mixed up treatment during the 12-week treatment, as 2-(diethylamino)ethyl 2-(4-isobutylphenyl)propionate-treated). Based on this assumption, that is, to treat this trial as an open-label study and that all patients received active treatment, we conducted efficacy analysis using top-line efficacy datasets prepared by CRO and the re-analysis results are presented in the following tables (Tables 29-47). […] (William G. Bensen, Justus J. Fiechtner, James 1. McMillen, et. al. Treatment of Osteoarthritis with Celecoxib. Mayo Clin Proc, November 1999. Vol 74, 1095-1105.)

[1] = 8.75 mg/knee (BID), Follow up (week 13, day 91)
[2] = 8.75 mg/knee (BID), Week 2 (day 14)
[3] = 8.75 mg/knee (BID), Week 4 (day 28)
[4] = 8.75 mg/knee (BID), Week 8 (day 56)
[5] = 8.75 mg/knee (BID), Week 12 (day 84)
[6] = 17.5 mg/knee (BID), Follow up (week 13, day 91)
[7] = 17.5 mg/knee (BID), Week 2 (day 14)
[8] = 17.5 mg/knee (BID), Week 4 (day 28)
[9] = 17.5 mg/knee (BID), Week 8 (day 56)
[10] = 17.5 mg/knee (BID), Week 12 (day 84)
[11] = 35 mg/knee (BID), Follow up (week 13, day 91)
[12] = 35 mg/knee (BID), Week 2 (day 14)
[13] = 35 mg/knee (BID), Week 4 (day 28)

## CCN(CC)CCOC(=O)C(C)c1ccc(CC(C)C)cc1 (stereo not shown) [2-(diethylamino)ethyl 2-(4-isobutylphenyl)propionate]
[1]
  Change of WOMAC Joint Stiffness score from baseline (±SEM), adjusted by […] of the Testing Drug Amount: −39.1(±5.1) mm
  Percentage of improvement from baseline, WOMAC Joint Stiffness score, adjusted by […] of the Testing Drug Amount: −60.9%
  Change of WOMAC Joint Stiffness score from baseline (±SEM): −22.8(±3.7) mm
  Percentage of improvement from baseline, WOMAC Joint Stiffness score: −35.5%
[2]
  Change of WOMAC Joint Stiffness score from baseline (±SEM), adjusted by […] of the Testing Drug Amount: −20.1(±4.3) mm
  Percentage of improvement from baseline, WOMAC Joint Stiffness score, adjusted by […] of the Testing Drug Amount: −31.2%
  Change of WOMAC Joint Stiffness score from baseline (±SEM): −11.7(±2.5) mm
  Percentage of improvement from baseline, WOMAC Joint Stiffness score: −18.2%
[3]
  Change of WOMAC Joint Stiffness score from baseline (±SEM), adjusted by […] of the Testing Drug Amount: −31.7(±5.7) mm
  Percentage of improvement from baseline, WOMAC Joint Stiffness score, adjusted by […] of the Testing Drug Amount: −49.4%
  Change of WOMAC Joint Stiffness score from baseline (±SEM): −18.5(±3.3) mm
  Percentage of improvement from baseline, WOMAC Joint Stiffness score: −28.8%
[4]
  Change of WOMAC Joint Stiffness score from baseline (±SEM), adjusted by […] of the Testing Drug Amount: −37.6(±6.0) mm
  Percentage of improvement from baseline, WOMAC Joint Stiffness score, adjusted by […] of the Testing Drug Amount: −58.5%
  Change of WOMAC Joint Stiffness score from baseline (±SEM): −21.9(±3.5) mm
  Percentage of improvement from baseline, WOMAC Joint Stiffness score: −34.1%
[5]
  Change of WOMAC Joint Stiffness score from baseline (±SEM), adjusted by […] of the Testing Drug Amount: −38.4(±5.3) mm
  Percentage of improvement from baseline, WOMAC Joint Stiffness score, adjusted by […] of the Testing Drug Amount: −59.7%
  Change of WOMAC Joint Stiffness score from baseline (±SEM): −22.4(±3.1) mm
  Percentage of improvement from baseline, WOMAC Joint Stiffness score: −34.8%
[6]
  Change of WOMAC Joint Stiffness score from baseline (±SEM), adjusted by […] of the Testing Drug Amount: −44.7(±6.2) mm
  Percentage of improvement from baseline, WOMAC Joint Stiffness score, adjusted by […] of the Testing Drug Amount: −65.9%
  Change of WOMAC Joint Stiffness score from baseline (±SEM): −26.1(±3.6) mm
  Percentage of improvement from baseline, WOMAC Joint Stiffness score: −38.4%
[7]
  Change of WOMAC Joint Stiffness score from baseline (±SEM), adjusted by […] of the Testing Drug Amount: −32.2(±4.3) mm
  Percentage of improvement from baseline, WOMAC Joint Stiffness score, adjusted by […] of the Testing Drug Amount: −47.3%
  Change of WOMAC Joint Stiffness score from baseline (±SEM): −18.8(±2.5) mm
  Percentage of improvement from baseline, WOMAC Joint Stiffness score: −27.6%
[8]
  Change of WOMAC Joint Stiffness score from baseline (±SEM), adjusted by […] of the Testing Drug Amount: −40.0(±5.1) mm
  Percentage of improvement from baseline, WOMAC Joint Stiffness score, adjusted by […] of the Testing Drug Amount: −58.8%
  Change of WOMAC Joint Stiffness score from baseline (±SEM): −23.3(±3.0) mm
  Percentage of improvement from baseline, WOMAC Joint Stiffness score: −34.3%
[9]
  Change of WOMAC Joint Stiffness score from baseline (±SEM), adjusted by […] of the Testing Drug Amount: −45.5(±5.3) mm
  Percentage of improvement from baseline, WOMAC Joint Stiffness score, adjusted by […] of the Testing Drug Amount: −66.9%
  Change of WOMAC Joint Stiffness score from baseline (±SEM): −26.5(±3.1) mm
  Percentage of improvement from baseline, WOMAC Joint Stiffness score: −39.0%
[10]
  Change of WOMAC Joint Stiffness score from baseline (±SEM), adjusted by […] of the Testing Drug Amount: −51.1(±5.8) mm
  Percentage of improvement from baseline, WOMAC Joint Stiffness score, adjusted by […] of the Testing Drug Amount: −75.1%
  Change of WOMAC Joint Stiffness score from baseline (±SEM): −29.8(±3.4) mm
  Percentage of improvement from baseline, WOMAC Joint Stiffness score: −43.8%
[11]
  Change of WOMAC Joint Stiffness score from baseline (±SEM), adjusted by […] of the Testing Drug Amount: −41.9(±5.3) mm
  Percentage of improvement from baseline, WOMAC Joint Stiffness score, adjusted by […] of the Testing Drug Amount: −67.4%
  Change of WOMAC Joint Stiffness score from baseline (±SEM): −24.4(±3.1) mm
  Percentage of improvement from baseline, WOMAC Joint Stiffness score: −39.3%
[12]
  Change of WOMAC Joint Stiffness score from baseline (±SEM), adjusted by […] of the Testing Drug Amount: −19.3(±4.6) mm
  Percentage of improvement from baseline, WOMAC Joint Stiffness score, adjusted by […] of the Testing Drug Amount: −31.2%
  Change of WOMAC Joint Stiffness score from baseline (±SEM): −11.3(±2.7) mm
  Percentage of improvement from baseline, WOMAC Joint Stiffness score: −18.2%
[13]
  Change of WOMAC Joint Stiffness score from baseline (±SEM), adjusted by […] of the Testing Drug Amount: −30.2(±5.0) mm
  Percentage of improvement from baseline, WOMAC Joint Stiffness score, adjusted by […] of the Testing Drug Amount: −48.5%
  Change of WOMAC Joint Stiffness score from baseline (±SEM): −17.6(±2.9) mm
  Percentage of improvement from baseline, WOMAC Joint Stiffness score: −28.3%
